Reference: patent publication US6759051B2, “Cosmetic or dermatological composition comprising at least one alkynyl carbamate and at least one polyol” (L'Oreal, priority 1998, dated 2004)

Test system: Pityrosporum ovale from the Institut Pasteur, reference CIP 1363.82
Test: Antifungal activity by the MIC (Minimum Inhibitory Concentration) method
Type: cell-based
Conditions: each compound at the concentration MIC/2; Sabouraud+Tween 40+glyceryl monooleate agar medium, 48 hours at 30° C
Description: The activity of the combination of compound (A) and compound (B) was determined by a conventional method known as the MIC (Minimum Inhibitory Concentration), the MIC corresponding to the concentration at which a given […] inhibits the growth of a given strain under defined conditions.
In this instance, strains of Pityrosporum ovale from the Institut Pasteur, reference CIP 1363.82, were used.
An inoculum of a fresh culture, of 1 to 10×10^7 cells/ml, is introduced into a Sabouraud+Tween 40 at 10 g/l+glyceryl monooleate at 2.5 g/l agar medium, in the presence or absence of the compound or of the combination of the compounds to be studied, and incubated for 48 hours at 30° C.

SMILES | growth of the microorganism
CCCCNC(=O)OCC#CI [Compound A, 3-iodo-2-propynyl butyl carbamate] | identical to that of the control medium
CCCCC(CC)COCC(O)CO (centres unmarked) [Compound B, 3-(2-ethylhexyloxy)-1,2-propanediol] | identical to that of the control medium
